Source: publication PMC9400856 (Molecular Informatics, 2022)

Target: mouse β3-adrenergic receptor (mβ3-AR) (Mus musculus, UniProt P25962)
Test: cAMP accumulation
Type: cell-based

Sequence of mouse β3-adrenergic receptor (mβ3-AR) (P25962 whole entry): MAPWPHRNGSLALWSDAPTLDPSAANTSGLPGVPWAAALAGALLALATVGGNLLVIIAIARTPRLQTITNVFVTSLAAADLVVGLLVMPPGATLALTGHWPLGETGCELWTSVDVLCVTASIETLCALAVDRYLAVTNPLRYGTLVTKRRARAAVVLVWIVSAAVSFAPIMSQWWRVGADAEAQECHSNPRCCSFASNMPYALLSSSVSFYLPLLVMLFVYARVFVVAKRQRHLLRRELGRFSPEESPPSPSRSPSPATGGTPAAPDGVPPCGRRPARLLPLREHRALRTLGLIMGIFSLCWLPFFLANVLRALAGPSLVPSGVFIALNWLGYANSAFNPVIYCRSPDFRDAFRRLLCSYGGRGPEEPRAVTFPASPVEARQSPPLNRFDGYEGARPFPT

## C[C@H](Cc1ccc(OCC(=O)O)cc1)NC[C@H](O)c1cccc(Cl)c1 [compound 3, BRL37344]
  EC50: 0.692 nM
